In PubChem BioAssay (NCI):
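A five-concentration, 48-hour dose response in 96-well plates underlies each endpoint, interpolated linearly between surrounding concentrations. The concentration for full growth arrest is given as TGI.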

Legend:
Test in all cases: inhibition of tumour cell growth, NCI panel, 48 h
[1] = system: SF-295 CNS
[2] = system: UACC-257 melanoma
[3] = system: COLO 205 colon
[4] = system: M14 melanoma
[5] = system: UO-31 renal
[6] = system: CAKI-1 renal
[7] = system: SK-MEL-5 melanoma
[8] = system: MDA-MB-231 breast
[9] = system: MDA-N
[10] = system: UACC-62 melanoma
[11] = system: SNB-75 CNS
[12] = system: ACHN renal
[13] = system: EKVX NSCLC
[14] = system: NCI-H522 lung
[15] = system: SNB-19 CNS
[16] = system: MOLT-4 leukemia
[17] = system: 786-0 renal
[18] = system: K-562 leukemia
[19] = system: A549 NSCLC
[20] = system: RPMI-8226 leukemia
[21] = system: DU-145 prostate
[22] = system: SK-MEL-2 melanoma
[23] = system: TK-10 renal
[24] = system: IGROV1 ovarian
[25] = system: OVCAR-3 ovarian
[26] = system: CCRF-CEM leukemia
[27] = system: NCI-H23 lung
[28] = system: HS 578T breast
[29] = system: HCT-15 colon
[30] = system: HOP-62 NSCLC
[31] = system: NCI-H460 lung
[32] = system: NCI-H226 lung
[33] = system: SF-539 CNS
[34] = system: KM12 colon
[35] = system: MDA-MB-435
[36] = system: PC-3 prostate
[37] = system: NCI/ADR-RES ovarian
[38] = system: T-47D breast
[39] = system: HCT-116 colon
[40] = system: SF-268 CNS
[41] = system: HCC-2998 colon
[42] = system: BT-549 breast
[43] = system: A498 renal
[44] = system: HL-60(TB) leukemia
[45] = system: SN12C renal
[46] = system: U251 CNS
[47] = system: OVCAR-8 ovarian
[48] = system: OVCAR-5 ovarian
[49] = system: MCF7 breast
[50] = system: MALME-3M melanoma
[51] = system: OVCAR-4 ovarian
[52] = system: HT29 colon
[53] = system: RXF 393 renal
[54] = system: SK-MEL-28 melanoma
[55] = system: SR leukemia
[56] = system: SK-OV-3 ovarian
[57] = system: HOP-92 NSCLC
[58] = system: LOX IMVI melanoma
[59] = system: SW-620 colon

## Cc1ccc(C2=CC(=O)OC(C[P+](c3ccccc3)(c3ccccc3)c3ccccc3)(c3ccccc3)O2)cc1 (centres undefined)
[1]
  TGI: 45.5 µM
[2]
  TGI: 30.8 µM
[3]
  TGI: 28.3 µM
[4]
  TGI: 32 µM
[5]
  TGI: 30.9 µM
[6]
  TGI: 29.3 µM
[7]
  TGI: 29.8 µM
[8]
  TGI: 82.3 µM
[9]
  TGI: 29.2 µM
[10]
  TGI: 30.5 µM
[11]
  TGI: 36.2 µM
[12]
  TGI: 39.8 µM
[13]
  TGI: 30 µM
[14]
  TGI: 26 µM
[15]
  TGI: 30.9 µM
[16]
  TGI: 67 µM
[17]
  TGI: 35.7 µM
[18]
  TGI: > 100 µM
[19]
  TGI: 34.3 µM
[20]
  TGI: 46.1 µM
[21]
  TGI: 30.3 µM
[22]
  TGI: 29.2 µM
[23]
  TGI: 35.6 µM
[24]
  TGI: 27.4 µM
[25]
  TGI: 30.7 µM
[26]
  TGI: 99.4 µM
[27]
  TGI: 27.2 µM
[28]
  TGI: 42.6 µM
[29]
  TGI: 42.8 µM
[30]
  TGI: 34.9 µM
[31]
  TGI: 43.8 µM
[32]
  TGI: 60.4 µM
[33]
  TGI: 33.8 µM
[34]
  TGI: 34.3 µM
[35]
  TGI: 30.7 µM
[36]
  TGI: 49 µM
[37]
  TGI: 40.2 µM
[38]
  TGI: 41.1 µM
[39]
  TGI: 29.2 µM
[40]
  TGI: 38.2 µM
[41]
  TGI: 38.2 µM
[42]
  TGI: 49.2 µM
[43]
  TGI: 29.1 µM
[44]
  TGI: 47.3 µM
[45]
  TGI: 57.7 µM
[46]
  TGI: 34.8 µM
[47]
  TGI: 51.1 µM
[48]
  TGI: 42.7 µM
[49]
  TGI: 56.6 µM
[50]
  TGI: 30.5 µM
[51]
  TGI: 31.5 µM
[52]
  TGI: 29.1 µM
[53]
  TGI: 73.2 µM
[54]
  TGI: 33.5 µM
[55]
  TGI: 61.2 µM
[56]
  TGI: 32.4 µM

## COC1=CC(=O)c2c(c(-c3nc(C)cs3)cn2C)C1=O
[1]
  TGI: 9.72 µM
[2]
  TGI: 4.44 µM
[3]
  TGI: 37.6 µM
[4]
  TGI: 7.39 µM
[5]
  TGI: > 91.2 µM
[6]
  TGI: 21.3 µM
[7]
  TGI: 2.88 µM
[8]
  TGI: 72.6 µM
[9]
  TGI: 2.7 µM
[10]
  TGI: 7.74 µM
[11]
  TGI: 5.42 µM
[57]
  TGI: 43.2 µM
[12]
  TGI: > 100 µM
[58]
  TGI: 22.8 µM
[13]
  TGI: 33.6 µM
[14]
  TGI: 7.26 µM
[15]
  TGI: > 100 µM
[16]
  TGI: > 80.9 µM
[17]
  TGI: > 100 µM
[18]
  TGI: 20.6 µM
[19]
  TGI: 12 µM
[59]
  TGI: 94.6 µM
[20]
  TGI: > 22.1 µM
[21]
  TGI: 18.3 µM
[22]
  TGI: 10.8 µM
[23]
  TGI: > 100 µM
[24]
  TGI: 20.5 µM
[25]
  TGI: 6.09 µM
[26]
  TGI: 35.1 µM
[27]
  TGI: 6.92 µM
[28]
  TGI: 8.48 µM
[29]
  TGI: 14.7 µM
[30]
  TGI: 25.3 µM
[31]
  TGI: 3.82 µM
[32]
  TGI: 77.2 µM
[33]
  TGI: 9.94 µM
[34]
  TGI: 26.7 µM
[35]
  TGI: 1.4 µM
[36]
  TGI: > 55.4 µM
[37]
  TGI: 31 µM
[38]
  TGI: 53.4 µM
[39]
  TGI: 30.8 µM
[40]
  TGI: 39.6 µM
[41]
  TGI: 18 µM
[42]
  TGI: > 57.4 µM
[43]
  TGI: 28.7 µM
[44]
  TGI: 9.44 µM
[45]
  TGI: 27 µM
[46]
  TGI: > 100 µM
[47]
  TGI: > 49.6 µM
[48]
  TGI: > 43.9 µM
[49]
  TGI: 10.9 µM
[51]
  TGI: 68.7 µM
[52]
  TGI: 21 µM
[53]
  TGI: 77.8 µM
[54]
  TGI: 16.1 µM
[55]
  TGI: > 50.8 µM
[56]
  TGI: > 100 µM

## Cc1cccc(C)c1NC(=O)C(Cc1c[nH]c2ccccc12)NC(=O)OCc1ccccc1 (centres undefined)
[1]
  TGI: 38.9 µM
[2]
  TGI: 34 µM
[3]
  TGI: 27.6 µM
[4]
  TGI: 31.7 µM
[5]
  TGI: 32.9 µM
[6]
  TGI: 50.2 µM
[7]
  TGI: 28.9 µM
[8]
  TGI: 48.2 µM
[9]
  TGI: 54.6 µM
[10]
  TGI: 41.3 µM
[11]
  TGI: 48.2 µM
[57]
  TGI: 62.4 µM
[12]
  TGI: 53.2 µM
[58]
  TGI: 53.8 µM
[13]
  TGI: 45.3 µM
[14]
  TGI: 72.7 µM
[15]
  TGI: 51.6 µM
[16]
  TGI: 63.7 µM
[17]
  TGI: 53.6 µM
[18]
  TGI: > 100 µM
[19]
  TGI: 46.6 µM
[59]
  TGI: > 100 µM
[20]
  TGI: 55.3 µM
[21]
  TGI: 51.6 µM
[22]
  TGI: 34.4 µM
[23]
  TGI: 43.7 µM
[24]
  TGI: 73 µM
[25]
  TGI: 69.3 µM
[26]
  TGI: 76.9 µM
[27]
  TGI: 70.8 µM
[28]
  TGI: > 100 µM
[29]
  TGI: > 100 µM
[30]
  TGI: > 100 µM
[31]
  TGI: 43.6 µM
[33]
  TGI: 41 µM
[34]
  TGI: 57 µM
[35]
  TGI: 48.5 µM
[36]
  TGI: 28.8 µM
[37]
  TGI: 40.3 µM
[38]
  TGI: 61.2 µM
[39]
  TGI: > 100 µM
[40]
  TGI: > 100 µM
[42]
  TGI: 65.3 µM
[43]
  TGI: 69.8 µM
[44]
  TGI: 44.3 µM
[45]
  TGI: 80.7 µM
[46]
  TGI: 47.2 µM
[47]
  TGI: 89.2 µM
[48]
  TGI: 51.6 µM
[49]
  TGI: 95.8 µM
[50]
  TGI: 52.8 µM
[51]
  TGI: 37.1 µM
[52]
  TGI: 68.7 µM
[53]
  TGI: 36.4 µM
[54]
  TGI: 57.1 µM
[55]
  TGI: 85.7 µM
[56]
  TGI: 65.1 µM

## CN1C(=O)c2ccccc2NC(=O)C12O[C@@H]2c1ccccc1 (some centres undefined)
[1]
  TGI: > 100 µM
[2]
  TGI: > 100 µM
[3]
  TGI: > 100 µM
[4]
  TGI: > 100 µM
[5]
  TGI: > 100 µM
[6]
  TGI: > 100 µM
[7]
  TGI: > 100 µM
[8]
  TGI: > 100 µM
[9]
  TGI: > 100 µM
[10]
  TGI: > 100 µM
[11]
  TGI: > 100 µM
[57]
  TGI: > 100 µM
[12]
  TGI: > 100 µM
[58]
  TGI: > 100 µM
[13]
  TGI: > 100 µM
[14]
  TGI: > 100 µM
[16]
  TGI: > 100 µM
[17]
  TGI: > 100 µM
[19]
  TGI: > 100 µM
[59]
  TGI: > 100 µM
[20]
  TGI: > 100 µM
[21]
  TGI: > 100 µM
[22]
  TGI: > 100 µM
[23]
  TGI: > 100 µM
[24]
  TGI: > 100 µM
[25]
  TGI: > 100 µM
[26]
  TGI: > 100 µM
[27]
  TGI: > 100 µM
[28]
  TGI: > 100 µM
[30]
  TGI: > 100 µM
[31]
  TGI: > 100 µM
[33]
  TGI: > 100 µM
[34]
  TGI: > 100 µM
[35]
  TGI: > 100 µM
[36]
  TGI: > 100 µM
[37]
  TGI: > 100 µM
[38]
  TGI: > 100 µM
[39]
  TGI: > 100 µM
[40]
  TGI: > 100 µM
[41]
  TGI: > 100 µM
[42]
  TGI: > 100 µM
[43]
  TGI: > 100 µM
[44]
  TGI: > 100 µM
[45]
  TGI: > 100 µM
[46]
  TGI: > 100 µM
[47]
  TGI: > 100 µM
[48]
  TGI: > 100 µM
[49]
  TGI: > 100 µM
[50]
  TGI: > 100 µM
[51]
  TGI: > 100 µM
[52]
  TGI: > 100 µM
[54]
  TGI: > 100 µM
[55]
  TGI: > 100 µM
